Measurements taken from the NIST ThermoML archive (doi:10.1021/je200195q).
Numbers after ± are expanded uncertainties.

Assay: activity coefficient (dimensionless); of the first substance listed, at infinite dilution; xn = mol fraction of the nth substance listed
Conditions: 101 kPa, Liquid, Chromatography, x1 = 0

Row | SMILES | activity coefficient (322.55 K) | activity coefficient (342.75 K) | activity coefficient (362.65 K) | activity coefficient (323.1 K) | activity coefficient (333.15 K) | activity coefficient (343.15 K) | other results
1 | CC1CCCC1 [methylcyclopentane] + CCCCn1cc[n+](C)c1.O=S(=O)([N-]S(=O)(=O)C(F)(F)C(F)(F)F)C(F)(F)C(F)(F)F | 6.85 ± 0.47 | 6.05 ± 0.41 | 5.79 ± 0.4 |  |  |  | 
2 | CCCO [propan-1-ol] + CCCCCCCCCCn1cc[n+](CCCCCCCCCC)c1C.O=S(=O)([N-]S(=O)(=O)C(F)(F)F)C(F)(F)F |  |  |  | 1.31 ± 0.085 | 1.16 ± 0.074 | 1.06 ± 0.067 | 
3 | CC(C)CO [2-methyl-1-propanol] + CCCCCC[n+]1ccn(C)c1.FC(F)(F)C(F)(F)[P-](F)(F)(F)(C(F)(F)C(F)(F)F)C(F)(F)C(F)(F)F |  |  |  |  |  |  | activity coefficient (312.8 K): 2.77 ± 0.19; activity coefficient (332.85 K): 2.13 ± 0.14; activity coefficient (354.65 K): 1.62 ± 0.11
4 | CCCCO [butan-1-ol] + CCCCCCCCCCn1cc[n+](CCCCCCCCCC)c1C.O=S(=O)([N-]S(=O)(=O)C(F)(F)F)C(F)(F)F |  |  |  | 1.38 ± 0.09 | 1.2 ± 0.077 | 1.12 ± 0.071 | 
5 | CCCCCCCCC [nonane] + CCCCCCCCCCn1cc[n+](CCCCCCCCCC)c1C.O=S(=O)([N-]S(=O)(=O)C(F)(F)F)C(F)(F)F |  |  |  | 3.31 ± 0.23 | 3.17 ± 0.22 | 3.45 ± 0.23 | 
6 | CCc1ccccc1 [ethylbenzene] + CCCCCC[n+]1ccn(C)c1.FC(F)(F)C(F)(F)[P-](F)(F)(F)(C(F)(F)C(F)(F)F)C(F)(F)C(F)(F)F |  |  |  |  |  |  | activity coefficient (312.8 K): 0.956 ± 0.06; activity coefficient (332.85 K): 1.03 ± 0.065; activity coefficient (354.65 K): 1.04 ± 0.066
7 | C#CCCCC [1-hexyne] + CCCCn1cc[n+](C)c1.O=S(=O)([N-]S(=O)(=O)C(F)(F)C(F)(F)F)C(F)(F)C(F)(F)F | 2.86 ± 0.2 | 2.73 ± 0.19 | 2.64 ± 0.18 |  |  |  | 
8 | C1CCCCC1 [cyclohexane] + CCCCn1cc[n+](C)c1.O=S(=O)([N-]S(=O)(=O)C(F)(F)C(F)(F)F)C(F)(F)C(F)(F)F | 7 ± 0.48 | 6.12 ± 0.42 | 5.41 ± 0.37 |  |  |  | 
9 | CCCC(C)=O [pentan-2-one] + CCn1cc[n+](C)c1.CS(=O)(=O)[O-] |  |  |  |  |  |  | activity coefficient (312.55 K): 7.79 ± 0.53; activity coefficient (322.45 K): 7.7 ± 0.53; activity coefficient (332.45 K): 7.57 ± 0.52
10 | c1ccsc1 [thiophene] + CCn1cc[n+](C)c1.CS(=O)(=O)[O-] |  |  |  |  |  |  | activity coefficient (312.55 K): 1.87 ± 0.13; activity coefficient (322.45 K): 1.91 ± 0.13; activity coefficient (332.45 K): 1.95 ± 0.13
11 | Cc1cccc(C)c1 [1,3-dimethylbenzene] + CCCCCC[n+]1ccn(C)c1.FC(F)(F)C(F)(F)[P-](F)(F)(F)(C(F)(F)C(F)(F)F)C(F)(F)C(F)(F)F |  |  |  |  |  |  | activity coefficient (312.8 K): 0.939 ± 0.059; activity coefficient (332.85 K): 0.997 ± 0.062; activity coefficient (354.65 K): 1.01 ± 0.063
12 | CCC[N+](=O)[O-] [1-nitropropane] + CCCCn1cc[n+](C)c1.O=S(=O)([N-]S(=O)(=O)C(F)(F)C(F)(F)F)C(F)(F)C(F)(F)F | 0.769 ± 0.05 | 0.821 ± 0.053 | 0.756 ± 0.05 |  |  |  | 
13 | c1ccncc1 [pyridine] + CCCCn1cc[n+](C)c1.O=S(=O)([N-]S(=O)(=O)C(F)(F)C(F)(F)F)C(F)(F)C(F)(F)F | 0.386 ± 0.033 | 0.429 ± 0.035 | 0.45 ± 0.036 |  |  |  | 
14 | CO [methanol] + CCCCn1cc[n+](C)c1.O=S(=O)([N-]S(=O)(=O)C(F)(F)C(F)(F)F)C(F)(F)C(F)(F)F | 1.23 ± 0.079 | 0.997 ± 0.062 | 0.942 ± 0.059 |  |  |  | 
15 | CCCCCCCCCCCCC [tridecane] + CCn1cc[n+](C)c1.CS(=O)(=O)[O-] |  |  |  |  |  |  | activity coefficient (312.55 K): 3380 ± 230; activity coefficient (322.45 K): 3280 ± 230; activity coefficient (332.45 K): 3070 ± 210
16 | CC(C)CO [2-methyl-1-propanol] + CCCCCCCCCCn1cc[n+](CCCCCCCCCC)c1C.O=S(=O)([N-]S(=O)(=O)C(F)(F)F)C(F)(F)F |  |  |  | 1.3 ± 0.084 | 1.17 ± 0.075 | 1.06 ± 0.067 | 
17 | CCc1ccccc1 [ethylbenzene] + CCCCCCCCCCn1cc[n+](CCCCCCCCCC)c1C.O=S(=O)([N-]S(=O)(=O)C(F)(F)F)C(F)(F)F |  |  |  | 0.652 ± 0.045 | 0.662 ± 0.045 | 0.689 ± 0.046 | 
18 | CCCCO [butan-1-ol] + CCCCCC[n+]1ccn(C)c1.FC(F)(F)C(F)(F)[P-](F)(F)(F)(C(F)(F)C(F)(F)F)C(F)(F)C(F)(F)F |  |  |  |  |  |  | activity coefficient (312.8 K): 4.9 ± 0.33; activity coefficient (332.85 K): 2.32 ± 0.16; activity coefficient (354.65 K): 1.76 ± 0.12
19 | CCC=O [propanal] + CCCCn1cc[n+](C)c1.O=S(=O)([N-]S(=O)(=O)C(F)(F)C(F)(F)F)C(F)(F)C(F)(F)F | 0.539 ± 0.039 | 0.533 ± 0.039 | 0.522 ± 0.039 |  |  |  | 
20 | C[N+](=O)[O-] [nitromethane] + CCn1cc[n+](C)c1.CS(=O)(=O)[O-] |  |  |  |  |  |  | activity coefficient (312.55 K): 2.06 ± 0.14; activity coefficient (322.45 K): 1.26 ± 0.081; activity coefficient (332.45 K): 0.801 ± 0.052
21 | CC1CCCCC1 [methylcyclohexane] + CCCCn1cc[n+](C)c1.O=S(=O)([N-]S(=O)(=O)C(F)(F)C(F)(F)F)C(F)(F)C(F)(F)F | 9.09 ± 0.62 | 7.96 ± 0.54 | 7.07 ± 0.48 |  |  |  | 

Row | SMILES | activity coefficient (322.55 K) | activity coefficient (342.75 K) | activity coefficient (362.65 K) | activity coefficient (323.1 K) | activity coefficient (333.15 K) | activity coefficient (343.15 K) | other results
22 | C[N+](=O)[O-] [nitromethane] + CCCCCCCCCCn1cc[n+](CCCCCCCCCC)c1C.O=S(=O)([N-]S(=O)(=O)C(F)(F)F)C(F)(F)F |  |  |  | 0.596 ± 0.042 | 0.559 ± 0.04 | 0.536 ± 0.039 | 
23 | Cc1ccccc1 [toluene] + CCCCCCCCCCn1cc[n+](CCCCCCCCCC)c1C.O=S(=O)([N-]S(=O)(=O)C(F)(F)F)C(F)(F)F |  |  |  | 0.512 ± 0.038 | 0.52 ± 0.039 | 0.527 ± 0.039 | 
24 | C=CCCCC [hex-1-ene] + CCCCCC[n+]1ccn(C)c1.FC(F)(F)C(F)(F)[P-](F)(F)(F)(C(F)(F)C(F)(F)F)C(F)(F)C(F)(F)F |  |  |  |  |  |  | activity coefficient (312.8 K): 3.67 ± 0.25; activity coefficient (332.85 K): 3.42 ± 0.23; activity coefficient (354.65 K): 3.14 ± 0.21
25 | CCCCCCCCCCCCCC [tetradecane] + CCn1cc[n+](C)c1.CS(=O)(=O)[O-] |  |  |  |  |  |  | activity coefficient (312.55 K): 4070 ± 280; activity coefficient (322.45 K): 4000 ± 280; activity coefficient (332.45 K): 3830 ± 260
26 | ClC(Cl)(Cl)Cl [tetrachloromethane] + CCCCCCCCCCn1cc[n+](CCCCCCCCCC)c1C.O=S(=O)([N-]S(=O)(=O)C(F)(F)F)C(F)(F)F |  |  |  | 0.776 ± 0.051 | 0.777 ± 0.051 | 0.777 ± 0.051 | 
27 | CCC(C)=O [butanone] + CCCCn1cc[n+](C)c1.O=S(=O)([N-]S(=O)(=O)C(F)(F)C(F)(F)F)C(F)(F)C(F)(F)F | 0.453 ± 0.036 | 0.389 ± 0.034 | 0.351 ± 0.032 |  |  |  | 
28 | CCCC=O [butanal] + CCn1cc[n+](C)c1.CS(=O)(=O)[O-] |  |  |  |  |  |  | activity coefficient (312.55 K): 4.87 ± 0.33; activity coefficient (322.45 K): 4.95 ± 0.34; activity coefficient (332.45 K): 3.51 ± 0.24
29 | CC1CCCCC1 [methylcyclohexane] + CCCCCCCCCCn1cc[n+](CCCCCCCCCC)c1C.O=S(=O)([N-]S(=O)(=O)C(F)(F)F)C(F)(F)F |  |  |  | 1.52 ± 0.1 | 1.48 ± 0.098 | 1.45 ± 0.095 | 
30 | CC1CCCC1 [methylcyclopentane] + CCCCCCCCCCn1cc[n+](CCCCCCCCCC)c1C.O=S(=O)([N-]S(=O)(=O)C(F)(F)F)C(F)(F)F |  |  |  | 1.35 ± 0.088 | 1.33 ± 0.086 | 1.3 ± 0.084 | 
31 | CC(C)O [propan-2-ol] + CCCCn1cc[n+](C)c1.O=S(=O)([N-]S(=O)(=O)C(F)(F)C(F)(F)F)C(F)(F)C(F)(F)F | 1.77 ± 0.12 | 1.46 ± 0.096 | 1.25 ± 0.08 |  |  |  | 
32 | CCC(C)=O [butanone] + CCCCCCCCCCn1cc[n+](CCCCCCCCCC)c1C.O=S(=O)([N-]S(=O)(=O)C(F)(F)F)C(F)(F)F |  |  |  | 0.318 ± 0.031 | 0.292 ± 0.031 | 0.264 ± 0.03 | 
33 | CCCCCCCCC [nonane] + CCCCn1cc[n+](C)c1.O=S(=O)([N-]S(=O)(=O)C(F)(F)C(F)(F)F)C(F)(F)C(F)(F)F | 31.5 ± 2.2 | 26 ± 1.8 | 21.8 ± 1.5 |  |  |  | 
34 | ClC(Cl)Cl [trichloromethane] + CCCCCCCCCCn1cc[n+](CCCCCCCCCC)c1C.O=S(=O)([N-]S(=O)(=O)C(F)(F)F)C(F)(F)F |  |  |  | 0.374 ± 0.033 | 0.395 ± 0.034 | 0.402 ± 0.034 | 
35 | CCCCCC [hexane] + CCCCCCCCCCn1cc[n+](CCCCCCCCCC)c1C.O=S(=O)([N-]S(=O)(=O)C(F)(F)F)C(F)(F)F |  |  |  | 1.82 ± 0.12 | 1.79 ± 0.12 | 1.76 ± 0.12 | 
36 | CCCO [propan-1-ol] + CCCCn1cc[n+](C)c1.O=S(=O)([N-]S(=O)(=O)C(F)(F)C(F)(F)F)C(F)(F)C(F)(F)F | 1.99 ± 0.14 | 1.62 ± 0.11 | 1.35 ± 0.088 |  |  |  | 
37 | CC(C)CC(C)(C)C [2,2,4-trimethylpentane] + CCn1cc[n+](C)c1.CS(=O)(=O)[O-] |  |  |  |  |  |  | activity coefficient (312.55 K): 445 ± 31; activity coefficient (322.45 K): 387 ± 27; activity coefficient (332.45 K): 334 ± 23
38 | ClCCl [dichloromethane] + CCCCn1cc[n+](C)c1.O=S(=O)([N-]S(=O)(=O)C(F)(F)C(F)(F)F)C(F)(F)C(F)(F)F | 0.356 ± 0.033 | 0.436 ± 0.035 | 0.539 ± 0.039 |  |  |  | 
39 | CCC[N+](=O)[O-] [1-nitropropane] + CCCCCC[n+]1ccn(C)c1.FC(F)(F)C(F)(F)[P-](F)(F)(F)(C(F)(F)C(F)(F)F)C(F)(F)C(F)(F)F |  |  |  |  |  |  | activity coefficient (312.8 K): 0.452 ± 0.036; activity coefficient (332.85 K): 0.451 ± 0.036; activity coefficient (354.65 K): 0.436 ± 0.035
40 | c1ccncc1 [pyridine] + CCCCCCCCCCn1cc[n+](CCCCCCCCCC)c1C.O=S(=O)([N-]S(=O)(=O)C(F)(F)F)C(F)(F)F |  |  |  | 0.328 ± 0.032 | 0.331 ± 0.032 | 0.334 ± 0.032 | 
41 | Cc1ccc(C)cc1 [1,4-dimethylbenzene] + CCCCCC[n+]1ccn(C)c1.FC(F)(F)C(F)(F)[P-](F)(F)(F)(C(F)(F)C(F)(F)F)C(F)(F)C(F)(F)F |  |  |  |  |  |  | activity coefficient (312.8 K): 0.992 ± 0.062; activity coefficient (332.85 K): 1.03 ± 0.065; activity coefficient (354.65 K): 1 ± 0.063
